# Results published in PubChem BioAssay (NCI).
#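 Exposure lasted 48 hours, with cells grown in 96-well plates and compounds tested at five concentrations. GI50 = concentration required for 50% inhibition of growth. TGI marks complete inhibition of growth.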
# Tests used:
# Assay in all cases: NCI tumour cell line growth inhibition, 48 h
# MDA-MB-435 = test system: MDA-MB-435
# CAKI-1 renal = test system: CAKI-1 renal
# U251 CNS = test system: U251 CNS
# A498 renal = test system: A498 renal
# SR leukemia = test system: SR leukemia
# OVCAR-5 ovarian = test system: OVCAR-5 ovarian
# SK-OV-3 ovarian = test system: SK-OV-3 ovarian
# MDA-MB-231 breast = test system: MDA-MB-231 breast
# NCI-H226 lung = test system: NCI-H226 lung
# KM12 colon = test system: KM12 colon
SMILES,GI50 (MDA-MB-435) [µM],TGI (MDA-MB-435) [µM],GI50 (CAKI-1 renal) [µM],TGI (CAKI-1 renal) [µM],GI50 (U251 CNS) [µM],TGI (U251 CNS) [µM],GI50 (A498 renal) [µM],TGI (A498 renal) [µM],GI50 (SR leukemia) [µM],TGI (SR leukemia) [µM],GI50 (OVCAR-5 ovarian) [µM],TGI (OVCAR-5 ovarian) [µM],GI50 (SK-OV-3 ovarian) [µM],TGI (SK-OV-3 ovarian) [µM],GI50 (MDA-MB-231 breast) [µM],TGI (MDA-MB-231 breast) [µM],GI50 (NCI-H226 lung) [µM],TGI (NCI-H226 lung) [µM],GI50 (KM12 colon) [µM],TGI (KM12 colon) [µM]
COc1cc(/C=C/c2cc(O)c(C(C)=O)c(O)c2)cc2c1O[C@]1(C)CC[C@@H](O)C(C)(C)[C@H]1C2,7.38,57.2,4.12,> 100,3.71,> 100,4.78,48.3,3.62,> 100,16.3,75.5,9.58,79.1,6.26,93,16.8,54.2,5.41,45.4
NC1(C(=O)OCc2ccccc2)CCCC1,–,41.2,–,47.5,–,40.3,–,> 100,–,> 100,–,85.7,–,71.1,–,36.4,–,91.7,–,> 100
COc1cccc(-c2nc(-c3ccc(NC(=O)C(C)C)cc3)[nH]c2-c2ccnc(Br)c2)c1,3.12,> 100,2.73,> 100,2.08,> 100,1.84,6.62,2.41,> 100,4.69,> 100,3.66,> 100,4.09,> 100,2.53,21.4,2.96,> 100
Cc1cc(O)c(/C=N/C(=S)NCc2ccccc2)c(=O)o1,–,> 100,–,> 100,–,> 100,–,> 100,–,> 100,–,> 100,–,> 100,–,> 100,–,> 100,–,> 100
O=C(CCc1nnc2sc(-c3ccc(Cl)cc3Cl)nn12)c1nc2ncccc2[nH]1,1.75,3.68,1.42,3.15,1.92,3.67,1.11,2.41,1.9,> 100,2.33,5.29,21.5,58,1.74,4.36,1.7,3.66,1.83,3.56
COc1ccc(-c2nnc(COc3ccc(C(=O)/C=C/c4ccco4)cc3)o2)cc1,2.13,5.08,6.11,19.7,1.62,3.08,11.4,23.6,1.52,7.28,5.85,19.1,12.2,24.6,2.99,10.4,4,16.8,1.75,3.62
Nc1ncnc2c1nnn2C1OC(CO)C(O)C1O (configuration not stated),0.273,2.44,–,2.88,–,37.8,–,5.68,0.049,> 12.7,–,15.4,–,1.95,0.232,3.99,–,12,–,6.68
N#CC(C#N)=CNC(N)=S,–,> 100,–,> 100,–,> 100,–,> 100,–,> 100,–,> 100,–,> 100,–,> 100,–,> 100,–,> 100
CC(=O)OC1=CC(n2cc(F)c(=O)[nH]c2=O)OC(C)C1=O (configuration not stated),–,> 100,–,> 100,–,> 100,–,> 44.9,–,> 100,–,> 100,–,> 100,–,> 100,–,> 100,–,> 100
Cc1cc(I)cc(CN(C)CCCN2CCCCC2)c1O,15,33.4,17,35.3,15.7,33.4,19.8,38.3,–,3.57,21,59.4,15.7,31.6,18.4,48.6,28.1,> 100,16.5,39.6
CN1CCN(CCCn2c(=O)c3sc4ncccc4c3n3nnc(-c4ccccc4)c23)CC1,1.18,3.01,6.16,13,5.21,11.2,0.159,9.37,1.11,2.57,8.85,16.9,8.88,15.9,6.88,13.6,7.4,15.3,4.24,10.7
